# Data as given in patent publication US6426229B1, “Chelating agent and detergent comprising the same” (Mitsubishi Rayon Co., Ltd., priority 1995, dated 2002).
# Experiment: Compression strength (hardening property) of powder stored under load for 2 months
# Assay type: physicochemical
# Conditions: Load 100 (table head [Kg]; text 100 g/cm^2); 20-30° C., relative humidity 40-70%
# Procedure: Method for the Measurement of Compression Strength
# (1) A test sample (500 g) is put in a poly-ethylene bag of 20 cm×20 cm in a room at a temperature of 20-30° C. and a relative humidity of 40-70%. The powder is levelled to an area of 20 cm×20 cm and air is forced out of the bag, and, then, the bag is sealed. This bag is further put in a kraft bag and this kraft bag is sealed.
# (2) The kraft bag of (1) is placed horizontally on a flat plate and a plate is put thereon. […]
# (3) With keeping the temperature of 20-30° C. and the relative humidity of 40-70%, the test sample is taken out after lapse of 2 months from the starting of application of load. Several test pieces (4 cm long×4 cm broad×2 cm high) are cut out from the sample.
row,Structure (SMILES),Compression strength after stored for 2 months
1,"O=C([O-])CN[C@@H](CC(=O)[O-])C(=O)[O-].[Na+].[Na+].[Na+] [Example 5, trisodium salt of (S)-aspartic acid-N-monoacetic acid]",1.2 Kg/cm^2
2,"O=C([O-])CCN[C@@H](CC(=O)[O-])C(=O)[O-].[Na+].[Na+].[Na+] [Example 6, trisodium salt of (S)-aspartic acid-N-monopropionic acid]",1.2 Kg/cm^2
3,"O=C(O)CN[C@@H](CC(=O)O)C(=O)O [Example 17, (S)-aspartic acid-N-monoacetic acid]",0.9 Kg/cm^2
4,"O=C(O)CCN[C@@H](CC(=O)O)C(=O)O [Example 18, (S)-aspartic acid-N-monopropionic acid]",1.2 Kg/cm^2
5,"O=C([O-])CN(CC(=O)[O-])c1ccccc1C(=O)[O-].[Na+].[Na+].[Na+] [Example 30, trisodium salt of anthranilic acid-N,N-diacetic acid]",1.2 Kg/cm^2

# Next, values leading:
row,Compression strength after stored for 2 months,Structure (SMILES)
1,1.3 Kg/cm^2,"O=C([O-])C[C@@H](C(=O)[O-])N(CC(=O)[O-])CC(=O)[O-].[Na+].[Na+].[Na+].[Na+] [Example 7, tetrasodium salt of (S)-aspartic acid-N,N-diacetic acid]"
2,1.0 Kg/cm^2,"C[C@@H](C(=O)[O-])N(CC(=O)[O-])CC(=O)[O-].[Na+].[Na+].[Na+] [Example 8, trisodium salt of (S)-α-alanine-N,N-diacetic acid]"
3,1.1 Kg/cm^2,"O=C(O)C[C@@H](C(=O)O)N(CC(=O)O)CC(=O)O [Example 19, (S)-aspartic acid-N,N-diacetic acid]"
4,1.0 Kg/cm^2,"C[C@@H](C(=O)O)N(CC(=O)O)CC(=O)O [Example 20, (S)-α-alanine-N,N-diacetic acid]"
5,1.3 Kg/cm^2,"O=C([O-])CN(CCS(=O)(=O)[O-])CC(=O)[O-].[Na+].[Na+].[Na+] [Example 28, trisodium salt of taurine-N,N-diacetic acid]"
6,1.2 Kg/cm^2,"CN(CC(=O)[O-])CC(=O)[O-].[Na+].[Na+] [Example 29, disodium N-methyliminodiacetate]"

# Same assay, conditions: Load 200 (table head [Kg]; text 200 g/cm^2); 20-30° C., relative humidity 40-70%
row,Structure (SMILES),Compression strength after stored for 2 months
1,"O=C([O-])CCN[C@@H](CC(=O)[O-])C(=O)[O-].[Na+].[Na+].[Na+] [Example 2, trisodium salt of (S)-aspartic acid-N-monopropionic acid]",1.0 Kg/cm^2
2,"O=C(O)CN[C@@H](CC(=O)O)C(=O)O [Example 13, (S)-aspartic acid-N-monoacetic acid]",1.1 Kg/cm^2
3,"O=C(O)CCN[C@@H](CC(=O)O)C(=O)O [Example 14, (S)-aspartic acid-N-monopropionic acid]",0.6 Kg/cm^2
4,"O=C([O-])CN(CC(=O)[O-])c1ccccc1C(=O)[O-].[Na+].[Na+].[Na+] [Example 27, trisodium salt of anthranilic acid-N,N-diacetic acid]",1.0 Kg/cm^2

# Second part, the compound after the results:
row,Compression strength after stored for 2 months,Structure (SMILES)
1,0.9 Kg/cm^2,"O=C([O-])C[C@@H](C(=O)[O-])N(CC(=O)[O-])CC(=O)[O-].[Na+].[Na+].[Na+].[Na+] [Example 3, tetrasodium salt of (S)-aspartic acid-N,N-diacetic acid]"
2,1.1 Kg/cm^2,"C[C@@H](C(=O)[O-])N(CC(=O)[O-])CC(=O)[O-].[Na+].[Na+].[Na+] [Example 4, trisodium salt of (S)-α-alanine-N,N-diacetic acid]"
3,0.9 Kg/cm^2,"O=C(O)C[C@@H](C(=O)O)N(CC(=O)O)CC(=O)O [Example 15, (S)-aspartic acid-N,N-diacetic acid]"
4,0.8 Kg/cm^2,"C[C@@H](C(=O)O)N(CC(=O)O)CC(=O)O [Example 16, (S)-α-alanine-N,N-diacetic acid]"
5,1.1 Kg/cm^2,"O=C([O-])CN(CCS(=O)(=O)[O-])CC(=O)[O-].[Na+].[Na+].[Na+] [Example 25, trisodium salt of taurine-N,N-diacetic acid]"
6,1.2 Kg/cm^2,"CN(CC(=O)[O-])CC(=O)[O-].[Na+].[Na+] [Example 26, disodium N-methyliminodiacetate]"
7,1.2 Kg/cm^2,"O=C(O)CN(CCS(=O)(=O)O)CC(=O)O [Example 34, taurine-N,N-diacetic acid]"
8,0.8 Kg/cm^2,"CN(CC(=O)O)CC(=O)O [Example 35, N-methyliminodiacetic acid]"

# Same assay, conditions: Load 300 (table head [Kg]; text 300 g/cm^2); 20-30° C., relative humidity 40-70%
row,Structure (SMILES),Compression strength after stored for 2 months
1,"O=C([O-])CN[C@@H](CC(=O)[O-])C(=O)[O-].[Na+].[Na+].[Na+] [Example 9, trisodium salt of (S)-aspartic acid-N-monoacetic acid]",0.8 Kg/cm^2
2,"O=C([O-])CCN[C@@H](CC(=O)[O-])C(=O)[O-].[Na+].[Na+].[Na+] [Example 10, trisodium salt of (S)-aspartic acid-N-monopropionic acid]",1.0 Kg/cm^2
3,"O=C(O)CN[C@@H](CC(=O)O)C(=O)O [Example 21, (S)-aspartic acid-N-monoacetic acid]",0.8 Kg/cm^2
4,"O=C(O)CCN[C@@H](CC(=O)O)C(=O)O [Example 22, (S)-aspartic acid-N-monopropionic acid]",0.9 Kg/cm^2
5,"O=C([O-])CN(CC(=O)[O-])c1ccccc1C(=O)[O-].[Na+].[Na+].[Na+] [Example 33, trisodium salt of anthranilic acid-N,N-diacetic acid]",0.9 Kg/cm^2

# Continued, values first:
row,Compression strength after stored for 2 months,Structure (SMILES)
1,0.8 Kg/cm^2,"O=C([O-])C[C@@H](C(=O)[O-])N(CC(=O)[O-])CC(=O)[O-].[Na+].[Na+].[Na+].[Na+] [Example 11, tetrasodium salt of (S)-aspartic acid-N,N-diacetic acid]"
2,0.9 Kg/cm^2,"C[C@@H](C(=O)[O-])N(CC(=O)[O-])CC(=O)[O-].[Na+].[Na+].[Na+] [Example 12, trisodium salt of (S)-α-alanine-N,N-diacetic acid]"
3,1.0 Kg/cm^2,"O=C(O)C[C@@H](C(=O)O)N(CC(=O)O)CC(=O)O [Example 23, (S)-aspartic acid-N,N-diacetic acid]"
4,0.9 Kg/cm^2,"C[C@@H](C(=O)O)N(CC(=O)O)CC(=O)O [Example 24, (S)-α-alanine-N,N-diacetic acid]"
5,1.0 Kg/cm^2,"O=C([O-])CN(CCS(=O)(=O)[O-])CC(=O)[O-].[Na+].[Na+].[Na+] [Example 31, trisodium salt of taurine-N,N-diacetic acid]"
6,0.8 Kg/cm^2,"CN(CC(=O)[O-])CC(=O)[O-].[Na+].[Na+] [Example 32, disodium N-methyliminodiacetate]"

# Same assay, conditions: after 2 months under the load of 200 [g/cm^2]
Structure (SMILES),compression strength of the test piece,state of the test piece after storage
"O=C([O-])CN[C@@H](CC(=O)[O-])C(=O)[O-].[Na+].[Na+].[Na+] [Example 1, trisodium salt of (S)-aspartic acid-N-monoacetic acid]",1.2 kg/cm^2,it could be disintegrated without any special grinding treatment
